The source of these data is patent US5223485A, “Anaphylatoxin-receptor ligands” (Abbott Laboratories, priority 1991, dated 1993).

pKi: −log10 of the molar value. Numbered stars: 1 amine (or outer) side, 2 acyl side, 3 side chain; on linkers, the order of the positions; unused ones are H or OH. Bridge positions count the residues as written; N and C are the ends. Square brackets hold non-standard residues; d marks the D form. Peptide text beside a SMILES is read from it. * marks the point of attachment. ξ: configuration not given here. X3 = CC(C)C[C@H](NC[C@H](C)N*)C(=O)N[C@H](C)C(=O)N[C@@H](CCCNC(=N)N)C(=O)O; X1 = O=C([C@@H](N[*:1])C(O)c1ccccc1)[*:2]; X2 = C[C@H](CN[C@@H](CCCNC(=N)N)C(=O)O)N*; NMe2Phe = CN(C)[C@@H](Cc1ccccc1)C(=O)*; NMeF = CN[C@@H](Cc1ccccc1)C(=O)O; Cha = N[C@@H](CC1CCCCC1)C(=O)O; dPen = CC(C)(S)[C@@H](N)C(=O)O; ξTic = O=C(O)C1Cc2ccccc2CN1; NMeA = CN[C@@H](C)C(=O)O; dNMeA = CN[C@H](C)C(=O)O; Bz = O=C(c1ccccc1)*; Ethyl(2-NH2) = NCC*

The target of this experiment is T1, C5a Receptor (Homo sapiens, UniProt P21730).
T1 construct: 2.5-25 μg/mL of purified PMNL membrane fragments; from tissue; host or cells: polymorphonuclear leukocyte (PMNL) membrane fragments
T1 sequence (P21730 1-350): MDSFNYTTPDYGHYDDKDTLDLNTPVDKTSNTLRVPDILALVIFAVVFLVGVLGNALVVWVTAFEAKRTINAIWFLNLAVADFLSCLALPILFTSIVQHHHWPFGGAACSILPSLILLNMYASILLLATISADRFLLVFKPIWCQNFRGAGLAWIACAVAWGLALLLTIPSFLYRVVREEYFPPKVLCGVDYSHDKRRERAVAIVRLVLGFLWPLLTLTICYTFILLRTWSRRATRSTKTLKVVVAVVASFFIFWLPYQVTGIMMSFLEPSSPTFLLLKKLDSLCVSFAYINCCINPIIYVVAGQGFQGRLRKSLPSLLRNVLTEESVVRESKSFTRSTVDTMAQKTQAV
Put plainly: Anaphylatoxin receptor binding Ki determination: inhibition of 125I-C5a binding to PMNL membrane fragments. To be noted: 0.03-1 nM 125I-C5a, 2.5-25 μg/mL purified PMNL membrane fragments, filtration; read-out: In vitro C5a Receptor Binding Potency Ki. How it is done:
Specific inhibition of C5a binding activity of representative compounds of the present invention was measured using 0.03-1 nM ^125 I-C5a with 2.5-25 μg/mL of purified PMNL membrane fragments (Borregaard, N.; Heiple, J. M.; Simons, E. R.; and Clark, R. A. J. Cell. Biol. 1983, 97, 52-61.). Free and membrane-bound ligand were separated by filtration.
The term pKi denotes the negative decadic logarithm of the Ki, by convention in mol/L. As for `CC(C)C[C@H](NC(=O)[C@H](C)NC(=O)[C@@H](NC(=O)[C@H](C)NC(=O)[C@H](CCCCN)NC(=O)[C@@H](N)Cc1ccccc1)C(O)c1ccccc1)C(=O)N[C@H](C)C(=O)N[C@@H](CCCNC(=N)N)C(=O)O` (stereo partly shown) [Example 117, H-Phenylalanyl-Lysyl-Alanyl-Phenylseryl-Alanyl-Leucyl-DAlanyl-Arginyl-OH] (H-FKA[X1]AL[dA]R-OH), the pKi is 6.26.

On to `CN[C@@H](Cc1ccccc1)C(=O)N[C@@H](CCCCN)C(=O)N[C@@H](CCCNC(=N)N)C(=O)N[C@@H](CCSC)C(=O)N[C@@H](CCC(N)=O)C(=O)N[C@@H](CC(C)C)C(=O)NCC(=O)N[C@@H](CCCNC(=N)N)C(=O)O` [Example 460, (N-Methyl)Phenylalanyl-Lysyl-Arginyl-Methionyl-Glutaminyl-Leucyl-Glycyl-Arginyl-OH] (H-[NMeF]KRMQLGR-OH), for which the negative-log Ki (pKi) is 7.68.

As for `CCCC(C(=O)N[C@H](C)C(=O)N[C@@H](CCCNC(=N)N)C(=O)O)N1CCCC[C@H](NC(=O)[C@H](CC2CCCCC2)NC(=O)[C@H](Cc2c[nH]cn2)NC(=O)[C@H](CCCCN)NC(=O)[C@@H](N)Cc2ccccc2)C1=O` (stereo partly drawn) [Example 150, H-Phenylalanyl-Lysyl-Histidyl-{(2S)-2-Amino-3-cyclohexylpropanoyl}-{(2'R/S,3S)-3-Amino-2-oxo-1-azepine-2'-pentanoyl}-DAlanyl-Arginyl-OH], the pKi was 6.96.

On to `CC(C)C[C@H](NC(=O)[C@H](CC1CCCCC1)NC(=O)[C@H](CC1CCCCC1)NC(=O)[C@H](C)NC(=O)[C@H](CCCCN)NC(=O)[C@@H](N)Cc1ccccc1)C(=O)N[C@@H](C)C(=O)N[C@@H](CCCNC(=N)N)C(=O)O` [Example 188, H-Phenylalanyl-Lysyl-Alanyl-{(2S)-2-Amino-3-cyclohexylpropanoyl}-{(2S)-2-Amino-3-cyclohexylpropanoyl}-Leucyl-Alanyl-Arginyl-OH] (H-FKA[Cha][Cha]LAR-OH), for which the pKi was 6.68.

As to `CC(C)C[C@H](NC(=O)[C@H](Cc1ccccc1)NC(=O)[C@H](Cc1ccccc1)NC(=O)[C@H](CC(N)=O)NC(=O)[C@H](CCCCN)NC(=O)[C@@H](N)Cc1ccccc1)C(=O)N[C@H](C)C(=O)N[C@@H](CCCNC(=N)N)C(=O)O` [Example 91, H-Phenylalanyl-Lysyl-Asparaginyl-Phenylalanyl-Phenylalanyl-Leucyl-DAlanyl-Arginyl-OH] (H-FKNFFL[dA]R-OH), the pKi was 6.31.

In the case of `CC(C)C[C@H](NC(=O)CNC(=O)[C@H](CC1CCCCC1)NC(=O)[C@@H](Cc1ccccc1)NC(=O)[C@H](CCCCN)NC(=O)[C@@H](N)Cc1ccccc1)C(=O)N[C@H](C)C(=O)N[C@@H](CCCNC(=N)N)C(=O)O` [Example 316, H-Phenylalanyl-Lysyl-DPhenylalanyl-{(2S)-2-Amino-3-cyclohexylpropanoyl}-Glycyl-Leucyl-DAlanyl-Arginyl-OH] (H-FK[dF][Cha]GL[dA]R-OH), the pKi is 6.77.

For the compound `CC(=O)N[C@@H](Cc1ccccc1)C(=O)N[C@@H](CCCCN)C(=O)N[C@@H](C)C(=O)N[C@@H](CC1CCCCC1)C(=O)N[C@@H](C)C(=O)N[C@@H](CC(C)C)C(=O)N[C@H](C)C(=O)N[C@@H](Cc1ccc(O)cc1)C(=O)O` [Example 305, Ac-Phenylalanyl-Lysyl-Alanyl-{(2S)-2-Amino-3-cyclohexylpropanoyl}-Alanyl-Leucyl-DAlanyl-Tyrosyl-OH] (Ac-FKA[Cha]AL[dA]Y-OH), the pKi is 6.77.

For `CC(C)C[C@H](NC(=O)[C@H](C)NC(=O)[C@H](C)NC(=O)[C@H](CCCCN)NC(=O)[C@@H](N)Cc1ccccc1)C(=O)N[C@@H](C)C(=O)N[C@H](C)C(=O)N[C@@H](CCCNC(=N)N)C(=O)O` [Example 295, H-Phenylalanyl-Lysyl-Alanyl-Alanyl-Leucyl-Alanyl-DAlanyl-Arginyl-OH] (H-FKAALA[dA]R-OH), the pKi was 5.48.

In the case of `CC(C)C[C@H](NC[C@H](C)NC(=O)[C@H](CC1CCCCC1)NC(=O)[C@H](C)NC(=O)[C@H](CCCCN)NC(=O)[C@@H](N)Cc1ccccc1)C(=O)N[C@H](C)C(=O)N[C@@H](CCCNC(=N)N)C(=O)O` [Example 409, H-phenylalanyl-Lysyl-Alanyl-{(2S)-2-Amino-3-Cyclohexylpropanoyl}-Alanyl-.psi.{CH2 --NH}-Leucyl-DAlanyl-Arginyl-OH] (H-FKA[Cha]-X3), the pKi is 5.42.

With `CC(C)C[C@@H]1NC(=O)[C@H](CC2CCCCC2)NC(=O)[C@H](CC2CCCCC2)NC(=O)[C@H](C)NC(=O)[C@H](CCCCN)NC(=O)[C@H](NC(=O)c2ccccc2)C(C)(C)SSC[C@H](C(=O)N[C@@H](CCCNC(=N)N)C(=O)O)NC1=O` [Example 279, Benzoyl-DPenicillaminyl*-Lysyl-Alanyl-{(2S)-2-Amino-3-cyclohexylpropanoyl)-{(2S)-2-Amino-3-cyclohexylpropanoyl}-Leucyl-DCysteinyl*-Arginyl-OH] (Bz-[dPen]KA[Cha][Cha]L[dC]R-OH; disulfide 1-7), the pKi was 5.40.

As for `CC(C)C[C@H](NC(=O)CNC(=O)C1Cc2ccccc2CN1C(=O)[C@H](C)NC(=O)[C@H](CCCCN)NC(=O)[C@@H](N)Cc1ccccc1)C(=O)N[C@H](C)C(=O)N[C@@H](CCCNC(=N)N)C(=O)O` (stereo partly shown) [Example 445, H-Phenylalanyl-Lysyl-Alanyl-{(3R/S)-1,2,3,4-Tetrahydroisoquinolin-3-carbonyl}-Glycyl-Leucyl-DAlanyl-Arginyl-OH] (H-FKA[ξTic]GL[dA]R-OH), the pKi is 6.59.

With `CC(C)C[C@H](NC(=O)[C@H](CC1CCCCC1)NC(=O)[C@H](CC1CCCCC1)NC(=O)[C@H](C)NC(=O)[C@H](CCCCN)NC(=O)[C@@H](N)Cc1ccccc1)C(=O)N(C)[C@H](C)C(=O)N[C@@H](CCCNC(=N)N)C(=O)O` [Example 229, H-Phenylalanyl-Lysyl-Alanyl-{(2S)-2-Amino-3-cyclohexylpropanoyl}-{(2S)-2-Amino-3-cyclohexylpropanoyl}-Leucyl-(N-Methyl)DAlanyl-Arginyl-OH] (H-FKA[Cha][Cha]L[dNMeA]R-OH), the pKi was 7.48.

Take `CC(C)C[C@H](NC(=O)CNC(=O)[C@@H](Cc1ccccc1)NC(=O)[C@H](C)NC(=O)[C@H](CCCCN)NC(=O)[C@@H](N)Cc1ccccc1)C(=O)N[C@H](C)C(=O)N[C@@H](CCCNC(=N)N)C(=O)O` [Example 282, H-Phenylalanyl-Lysyl-Alanyl-DPhenylalanyl-Glycyl-Leucyl-DAlanyl-Arginyl-OH] (H-FKA[dF]GL[dA]R-OH): the pKi was 7.54.

`CC(C)C[C@H](NC(=O)CNC(=O)[C@H](CC1CCCCC1)NC(=O)[C@H](C)N(C)C(=O)[C@H](CCCCN)NC(=O)[C@H](Cc1ccccc1)N(C)C)C(=O)N(C)[C@H](C)C(=O)N[C@@H](CCCNC(=N)N)C(=O)O` [Example 455, (N,N-di-Methyl)Phenylalanyl-Lysyl-(N-Methyl)Alanyl-{(2S)-2-Amino-3-cyclohexylpropanoyl}-Glycyl-Leucyl-(N-Methyl)DAlanyl-Arginyl-OH] (NMe2Phe-K[NMeA][Cha]GL[dNMeA]R-OH): the pKi is 7.77.

As to `CC(C)C[C@H](NC(=O)[C@H](CC1CCCCC1)NC(=O)[C@H](CC1CCCCC1)NC(=O)[C@H](C)NC(=O)[C@H](CSCCN)NC(=O)[C@@H](N)Cc1ccccc1)C(=O)N[C@H](C)C(=O)N[C@@H](CCCNC(=N)N)C(=O)O` [Example 348, H-Phenylalanyl-(S-2-Aminoethyl)Cysteinyl-Alanyl-{(2S)-2-Amino-3-cyclohexylpropanoyl}-{(2S)-2-Amino-3-cyclohexylpropanoyl}-Leucyl-DAlanyl-Arginyl-OH] (H-FC(Ethyl(2-NH2))A[Cha][Cha]L[dA]R-OH), the pKi is 6.85.

`CC(C)C[C@H](NC(=O)CNC(=O)[C@H](CC1CCCCC1)NC(=O)[C@H](C)NC(=O)[C@H](CCCCN)NC(=O)[C@@H](N)Cc1ccccc1)C(=O)N[C@H](C)C(=O)N[C@@H](CCCNC(=N)N)C(=O)O` [Example 165, H-Phenylalanyl-Lysyl-Alanyl-{(2S)-2-Amino-3-cyclohexylpropanoyl}-Glycyl-Leucyl-DAlanyl-Arginyl-OH] (H-FKA[Cha]GL[dA]R-OH): the pKi was 7.38.

Regarding `C[C@H](NC(=O)[C@H](CCCCN)NC(=O)[C@@H](N)Cc1ccccc1)C(=O)N[C@@H](CC1CCCCC1)C(=O)N[C@@H](CC1CCCCC1)C(=O)N[C@H](C(=O)N[C@H](C)C(=O)N[C@@H](CCCNC(=N)N)C(=O)O)[C@@H](C)O` [Example 131, H-Phenylalanyl-Lysyl-Alanyl-{(2S)-2-Amino-3-cyclohexylpropanoyl}-{(2S)-2-Amino-3-cyclohexylpropanoyl}-Threonyl-DAlanyl-Arginyl-OH] (H-FKA[Cha][Cha]T[dA]R-OH), the negative-log Ki (pKi) was 6.77.

For the compound “Ac-Histidyl-Lysyl-Aspartyl-{(2S)-2-Amino-3-cyclohexylpropanoyl}-{(2S)-2-Amino-3-cyclohexylpropanoyl}-Leucyl-Pipecolyl(±)-Arginyl-OH [Example 13]”, the pKi is 6.07.

As to `CC(C)C[C@H](NC(=O)[C@H](C)NC(=O)[C@H](CC1CCCCC1)NC(=O)[C@H](C)NC(=O)[C@H](CCCCN)NC(=O)[C@@H](N)Cc1ccccc1)C(=O)N[C@H](C)CN[C@@H](CCCNC(=N)N)C(=O)O` [Example 421, H-Phenylalanyl-Lysyl-Alanyl-{(2S)-2-Amino-3-cyclohexylpropanoyl}-Alanyl-Leucyl-DAlanyl-.psi.{CH2 --NH}-Arginyl-OH] (H-FKA[Cha]AL-X2), the pKi was 5.49.
